This passage reports IC50 results from patent US20230226198A1, “Artemisinin Derivatives” (DA ZEN THERANOSTICS, INC., priority 2019, published 2023).

What all share (type): cell-based
For experiment [1], the system named is H358 cells. In words: MTT cell viability / IC50 assay, H358. Conditions: Homo sapiens, NCI-H358, 48 h. The protocol:
(§1) Cell culture: In the following examples, unless otherwise specified, all cell lines are purchased from American Type Culture Collection and cultured in American Type Culture Collection (ATCC)-recommended media, with fetal bovine serum (FBS) to a final concentration of 10% and 1× penicillin/streptomycin at 37° C. with 5% CO2 in a cell culture incubator, unless otherwise specified. Unless otherwise specified, culture is 2D. Where culture is 3D, low attachment plates are used, with the same media. C4-2B (ATCC® CRL-3315™, human prostate cancer cells of epithelial morphology) parental cell line and drug-resistant cells derived therefrom) are cultured in RPMI-1640 with 10% FBS. MDVR cells (an Enzalutamide-resistant variety of C4-2B prostate cancer cells formed as described below) are cultured as indicated for the parental C4-2B cells. Caki-1 cells (human clear cell renal cell carcinoma cells) are cultured in ATCC-formulated McCoy's 5a Medium Modified (ATCC Catalog No. 30-2007) with 10% FBS. […]
(§2) Each of the cell lines is treated either with a THAD (e.g. DZ-DHA-ether, MI-148-bis-DHA), or for comparison, with the DHA mono-ester “DZ-DHA”; alternatively/additionally, DZ1 and/or unconjugated DHA may serve as comparants. […] The absorbance density of the supernatant is read on a 96-well microplate reader at wavelength 595 nm. […]

In experiment [2] the test system is DU145 cells. The experiment is described as follows: MTT cell viability / IC50 assay, DU145. The settings on record: Homo sapiens, DU-145; DU145, 48 h. The protocol: as §1, §2
Experiment [3] concerns Abi-R cells (Abiraterone acetate resistant C4-2B cells). In words: MTT cell viability / IC50 assay, Abi-R. The settings on record: Homo sapiens, 48 h. The protocol: as §1, §2
Experiment [4] concerns C4-2B cells. The experiment is described as follows: MTT cell viability / IC50 assay, C4-2B. The settings on record: Homo sapiens, 48 h. The protocol:
as §1, §2

In the case of `C[C@@H]1CC[C@H]2[C@@H](C)C(OC(=O)CCCCCN3/C(=C/C=C4\CCCC(/C=C/C5=[N+](CCCCS(=O)(=O)[O-])c6ccccc6C5(C)C)=C4Cl)C(C)(C)c4ccccc43)O[C@@H]3OC4(C)CC[C@@H]1[C@]32OO4` (stereo in doubt) [DZ3a], the IC50 (commonly the concentration that gives 50% inhibition) worked out at 2.6 µM in experiment [1], 8.1 µM in experiment [2], 17.1 µM in experiment [3] and 5 µM in experiment [4].

For the compound `C[C@H]1[C@@H](O)O[C@@H]2O[C@@]3(C)CC[C@H]4[C@H](C)CC[C@@H]1[C@@]24OO3` [DHA, dihydroartemisinin], the IC50 in experiment [1] stood at 7.32 µM; in experiment [2], 295 µM; in experiment [3] it was 669 µM; in experiment [4] it was 188 µM.
